Data from US12264134B2 (Merck Sharp & Dohme LLC, priority 2018, dated 2025).
pIC50: −log10 of the molar value.

Experiments:
[1] = molecular target: T1, IDO1 (Homo sapiens, UniProt P14902); experiment: IDO1 Human Whole blood Assay; type: cell-based; design: Human whole blood was drawn in sodium heparin coated tubes from healthy internal donors; from tissue; host or cells: human whole blood from healthy donors, stimulated with LPS and IFNγ; settings: LPS and IFNγ stimulated, 18 h, read-out: Human Whole Blood Potency, IC50
T1 sequence (P14902 whole entry): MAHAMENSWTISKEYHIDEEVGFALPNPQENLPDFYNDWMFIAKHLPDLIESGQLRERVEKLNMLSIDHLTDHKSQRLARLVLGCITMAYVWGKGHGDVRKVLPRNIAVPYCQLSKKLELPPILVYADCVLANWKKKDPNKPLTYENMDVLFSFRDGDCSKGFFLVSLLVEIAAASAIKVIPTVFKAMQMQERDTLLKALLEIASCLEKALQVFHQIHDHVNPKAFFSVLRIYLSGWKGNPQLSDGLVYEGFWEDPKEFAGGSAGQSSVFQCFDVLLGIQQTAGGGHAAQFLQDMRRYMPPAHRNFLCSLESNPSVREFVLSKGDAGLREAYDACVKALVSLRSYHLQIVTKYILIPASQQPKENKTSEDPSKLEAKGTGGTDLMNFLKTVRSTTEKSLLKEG
In short: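 Heparinized healthy-donor human whole blood was preincubated 15 min with compound, then stimulated with LPS and IFNγ (100 ng/mL final) for 18 h at 37 °C. Plasma kynurenine was quantified by LC/MS/MS against a D6-kynurenine internal standard, and IC50s came from 4-parameter sigmoidal fits.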

[2] = molecular target: T1, IDO1; experiment: IDO1 Cellular Assay in HeLa Cells Stimulated with IFNγ; type: cell-based; settings: read-out: HeLa Cell Potency, IC50

Compound | pIC50 [1] | pIC50 [2]
Cc1cccc(N2CCN(C(=O)Cn3nc(C(=O)N4CCC(N)CC4)c4c3C[C@H]3C[C@@H]43)CC2)c1C [Example 479, 2-((3bR,4aR)-3-(4-aminopiperidine-1-carbonyl)-3b,4,4a,5-tetrahydro-1H-cyclopropa [3,4]cyclopenta[1,2-c]pyrazol-1-yl)-1-(4-(2,3-dimethylphenyl)piperazin-1-yl)ethanone] | 6.64 | 8.12
Cc1cccc(N2CCN(C(=O)Cn3nc(C(=O)N4CCN(C(=O)CO)CC4)c4c3CCCC4)CC2)c1C [Example 480, 1-(4-(2,3-dimethylphenyl)piperazin-1-yl)-2-(3-(4-(2-hydroxyacetyl)piperazin-1-carbonyl)-4,5,6,7-tetrahydro-1H-indazol-1-yl)ethanone] | 7.05 | 8.06
Cc1cccc(N2CCN(C(=O)Cn3nc(C(=O)N4CCC(O)CC4)c4c3CCC4)C3(CC3)C2)c1C [compound 392] | 5.57 | 8.49
